Test results taken from patent US8889670B2, “Heterocyclic compounds which modulate the CB2 receptor” (Boehringer Ingelheim International GmbH, priority 2009, dated 2014).
Like-named read-outs stand apart in the source and are kept apart here.

Molecular target: T1, human CB2R (Homo sapiens, UniProt P34972)
T1 construct: host or cells: CHO cells
Test: CB2R mediated modulation of cAMP synthesis (forskolin-stimulated cAMP, CHO cells expressing human CB2R)
Format: cell-based
Protocol: B. CB2R Mediated Modulation of cAMP Synthesis:
Compounds of the invention were evaluated for their CB2 agonist or inverse agonistic activity in accordance with the following experimental method.
CHO cells expressing human CB2R (Euroscreen) were plated at a density of 5000 cells per well in 384 well plates and incubated overnight at 37° C. After removing the media, the cells were treated with test compounds diluted in stimulation buffer containing 1 mM IBMX, 0.25% BSA and 10 uM Forskolin. The assay was incubated for 30 minutes at 37° C. Cells were lysed and the cAMP concentration was measured using DiscoverX-XS cAMP kit, following the manufacturer's protocol. In this setting, agonists will decrease forskolin induced production of cAMP while inverse agonists will further increase forskolin induced production of cAMP. EC50 of agonists were calculated as follows. The maximal amount of cAMP produced by forskolin compared to the level of cAMP inhibited by 1 uM CP55940 is defined as 100%. […] Data was analyzed using a four-parameter logistic model. (Model 205 of XLfit 4.0).

[1] = agonist EC50, inhibition of forskolin-stimulated cAMP synthesis, CHO cells expressing human CB2R, mean, read-out: CB2 CAMP @ EC50 nM (mean)

T1 sequence (P34972 whole entry): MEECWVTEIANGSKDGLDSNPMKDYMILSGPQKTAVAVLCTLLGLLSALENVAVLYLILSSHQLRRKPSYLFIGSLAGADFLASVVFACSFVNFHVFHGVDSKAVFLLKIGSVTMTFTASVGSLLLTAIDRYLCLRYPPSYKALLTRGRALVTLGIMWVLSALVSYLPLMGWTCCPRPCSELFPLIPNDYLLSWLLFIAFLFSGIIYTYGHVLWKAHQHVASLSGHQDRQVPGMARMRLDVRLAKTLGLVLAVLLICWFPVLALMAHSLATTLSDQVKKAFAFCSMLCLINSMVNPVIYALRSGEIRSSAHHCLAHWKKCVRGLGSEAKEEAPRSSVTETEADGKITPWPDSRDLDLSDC

EC50 [1] [nM]	Compound	EC50 [nM]
0.55	CCc1sc(NC(=O)[C@@H]2CCCCN2CC2CCOCC2)nc1-c1ccccc1 [(S)-1-(Tetrahydro-pyran-4-ylmethyl)-piperidine-2-carboxylic acid (5-ethyl-4-phenyl-thiazol-2-yl)-amide]	
	COc1ccc(S(=O)(=O)N2CCCC[C@H]2C(=O)Nc2cc(C(C)(C)C)on2)cc1 [(S)-1-(4-Methoxy-benzenesulfonyl)-piperidine-2-carboxylic acid (5-tert-butyl-isoxazol-3-yl)-amide]	27
	O=C(Nc1ccc(F)c(C(F)(F)F)c1)[C@@H]1CCCCN1CC1CCOCC1 [(S)-1-(Tetrahydro-pyran-4-ylmethyl)-piperidine-2-carboxylic acid (4-fluoro-3-trifluoromethyl-phenyl)-amide]	26
	CC(C)(C)c1nsc(NC(=O)[C@@H]2CCCCN2CC2CCOCC2)n1 [(S)-1-(Tetrahydro-pyran-4-ylmethyl)-piperidine-2-carboxylic acid (3-tert-butyl-1,2,4-thiadiazol-5-yl)-amide]	12
140	CC(C)(C)c1nnc(NC(=O)[C@@H]2CCCCN2C2CCC2)s1 [(S)-1-Cyclobutyl-piperidine-2-carboxylic acid (5-tert-butyl-1,3,4-thiadiazol-2-yl)-amide]	
65	O=C(Nc1nc(C2CCCCC2)cs1)[C@@H]1CCCCN1C1CCOCC1 [(S)-1-(Tetrahydro-pyran-4-yl)-piperidine-2-carboxylic acid (4-cyclohexyl-thiazol-2-yl)-amide]	
22	O=C(Nc1nc(-c2ccc(F)cc2)ns1)[C@@H]1CCCCN1C(=O)N1CCS(=O)(=O)CC1 [(S)-1-(1,1-Dioxo-1λ^6-thiomorpholine-4-carbonyl)-piperidine-2-carboxylic acid [3-(4-fluoro-phenyl)-[1,2,4]thiadiazol-5-yl]-amide]	
	CC(C)(C)c1cc(NC(=O)[C@@H]2CCCCN2Cc2ccc(F)c(F)c2)no1 [(S)-1-(3,4-Difluoro-benzyl)-piperidine-2-carboxylic acid (5-tert-butyl-isoxazol-3-yl)-amide]	0.58
	CC(C)(C)c1cc(NC(=O)C2CCCN(c3ncc(C(F)(F)F)cc3Cl)C2)no1 (stereo not drawn) [3′-Chloro-5′-trifluoromethyl-3,4,5,6-tetrahydro-2H-[1,2′]bipyridinyl-3-carboxylic acid (5-tert-butyl-isoxazol-3-yl)-amide]	113
	CC(C)(C)c1cc(NC(=O)[C@H]2CCCCN2C(=O)C2CCC(F)(F)CC2)no1 [(R)-1-(4,4-Difluoro-cyclohexanecarbonyl)-piperidine-2-carboxylic acid (5-tert-butyl-isoxazol-3-yl)-amide]	64
	CC(C)(C)c1cc(NC(=O)[C@@H]2CCCCN2S(=O)(=O)c2ccc(Cl)cc2)no1 [(S)-1-(4-Chloro-benzenesulfonyl)-piperidine-2-carboxylic acid (5-tert-butyl-isoxazol-3-yl)-amide]	21
	CC(C)(C)c1cc(NC(=O)[C@@H]2CCCCN2C(=O)CN2CCC(F)(F)C2)no1 [(S)-1-[2-(3,3-Difluoro-pyrrolidin-1-yl)-acetyl]-piperidine-2-carboxylic acid (5-tert-butyl-isoxazol-3-yl)-amide]	2.9
485	CC(C)(C)c1nnc(NC(=O)[C@@H]2CCCCN2C2CC2)s1 [(S)-1-Cyclopropyl-piperidine-2-carboxylic acid (5-tert-butyl-1,3,4-thiadiazol-2-yl)-amide]	
	CO[C@H]1CC[C@@H](C(=O)N2CCCC[C@H]2C(=O)Nc2cc(C(C)(C)C)on2)CC1	43
131	O=C(Nc1nc2ccc(Cl)cc2s1)[C@@H]1CCCCN1CC1CCOCC1 [(S)-1-(Tetrahydro-pyran-4-ylmethyl)-piperidine-2-carboxylic acid (6-chloro-benzothiazol-2-yl)-amide]	
130	O=C(NCCSCc1c(F)cccc1Cl)[C@@H]1CCCCN1C(=O)N1CCS(=O)(=O)CC1 [(S)-1-(1,1-Dioxo-1λ^6-thiomorpholine-4-carbonyl)-piperidine-2-carboxylic acid [2-(2-chloro-6-fluoro-benzylsulfanyl)-ethyl]-amide]	

EC50 [1] [nM]	Compound	EC50 [nM]
	CC(C)(C)c1csc(NC(=O)[C@@H]2CCCCN2CC2CCOCC2)n1 [(S)-1-(Tetrahydro-pyran-4-ylmethyl)-piperidine-2-carboxylic acid (4-tert-butyl-thiazol-2-yl)-amide]	13
495	CC(C)(C)OC(=O)N1CCCC[C@H]1C(=O)Nc1nnc(C(C)(C)C)s1 [(S)-2-(5-tert-Butyl-1,3,4-thiadiazol-2-ylcarbamoyl)-piperidine-1-carboxylic acid tert-butyl ester]	
	O=C(Nc1nc(-c2ccc(F)c(F)c2)cs1)[C@@H]1CCCCN1CC1CCOCC1 [(S)-1-(Tetrahydro-pyran-4-ylmethyl)-piperidine-2-carboxylic acid [4-(3,4-difluoro-phenyl)-thiazol-2-yl]-amide]	3.6
	O=C(Nc1cc(C2CCCCC2)no1)[C@@H]1CCCCN1C(=O)N1CCS(=O)(=O)CC1 [(S)-1-(1,1-Dioxo-1λ^6-thiomorpholine-4-carbonyl)-piperidine-2-carboxylic acid (3-cyclohexyl-isoxazol-5-yl)-amide]	59
	O=C(Nc1nc2c(F)cccc2s1)[C@@H]1CCCCN1CC1CCOCC1 [(S)-1-(Tetrahydro-pyran-4-ylmethyl)-piperidine-2-carboxylic acid (4-fluoro-benzothiazol-2-yl)-amide]	1.3
	CC(C)(C)c1cc(NC(=O)C2CCCCN2C(=O)C2CCC(F)(F)CC2)no1 (stereo not drawn) [1-(4,4-Difluoro-cyclohexanecarbonyl)-piperidine-2-carboxylic acid (5-tert-butyl-isoxazol-3-yl)-amide]	11
	CC(C)(C)c1cc(NC(=O)[C@@H]2CCCCN2C(=O)C2CCS(=O)(=O)C2)no1 (stereo partly drawn) [(S)-1-(1,1-Dioxo-tetrahydro-1λ^6-thiophene-3-carbonyl)-piperidine-2-carboxylic acid (5-tert-butyl-isoxazol-3-yl)-amide]	17
	O=C(Nc1nc2cc(F)ccc2s1)[C@@H]1CCCCN1C(=O)N1CCS(=O)(=O)CC1 [(S)-1-(1,1-Dioxo-1λ^6-thiomorpholine-4-carbonyl)-piperidine-2-carboxylic acid (5-fluoro-benzothiazol-2-yl)-amide]	56
5.2	CCc1sc(NC(=O)[C@@H]2CCCCN2C(=O)N2CCS(=O)(=O)CC2)nc1-c1ccccc1 [(S)-1-(1,1-Dioxo-1λ^6-thiomorpholine-4-carbonyl)-piperidine-2-carboxylic acid (5-ethyl-4-phenyl-thiazol-2-yl)-amide]	
53	CC(C)(C)c1nnc(NC(=O)[C@@H]2CCCCN2C(=O)N2CCS(=O)(=O)CC2)s1 [(S)-1-(1,1-Dioxo-1λ^6-thiomorpholine-4-carbonyl)-piperidine-2-carboxylic acid (5-tert-butyl-1,3,4-thiadiazol-2-yl)-amide]	
1.6	CC(C)(C)c1nnc(NC(=O)[C@@H]2CCCCN2CC2CCOCC2)s1 [(S)-1-(Tetrahydro-pyran-4-ylmethyl)-piperidine-2-carboxylic acid (5-tert-butyl-1,3,4-thiadiazol-2-yl)-amide]	
1.8	O=C(Nc1ccc(C(F)(F)F)c(F)c1)[C@@H]1CCCCN1CC1CCOCC1 [(S)-1-(Tetrahydro-pyran-4-ylmethyl)-piperidine-2-carboxylic acid (3-fluoro-4-trifluoromethyl-phenyl)-amide]	
	O=C(Nc1nc(-c2ccc(Cl)cc2)cs1)[C@@H]1CCCCN1C(=O)N1CCS(=O)(=O)CC1 [(S)-1-(1,1-Dioxo-1λ^6-thiomorpholine-4-carbonyl)-piperidine-2-carboxylic acid [4-(4-chloro-phenyl)-thiazol-2-yl]-amide]	9.9
105	CCC(C)c1cc(NC(=O)[C@@H]2CCCCN2C(=O)N2CCS(=O)(=O)CC2)on1 (stereo partly drawn) [(S)-1-(1,1-Dioxo-1λ^6-thiomorpholine-4-carbonyl)-piperidine-2-carboxylic acid (3-sec-butyl-isoxazol-5-yl)-amide]	
	CC(C)(C)c1cc(NC(=O)C2CCCN(C(=O)c3ccc(C(F)(F)F)cc3)C2)no1 (stereo not drawn) [1-(4-Trifluoromethyl-benzoyl)-piperidine-3-carboxylic acid (5-tert-butyl-isoxazol-3-yl)-amide]	16
206	O=C(Nc1nc2cc(Cl)ccc2s1)[C@@H]1CCCCN1C1CCOCC1 [(S)-1-(Tetrahydro-pyran-4-yl)-piperidine-2-carboxylic acid (5-chloro-benzothiazol-2-yl)-amide]	

Compound	EC50 [1] [nM]	EC50 [nM]
COCC(C)(C)c1cc(NC(=O)[C@@H]2CCCCN2C(=O)N2CCS(=O)(=O)CC2)no1 [(S)-1-(1,1-Dioxo-1λ^6-thiomorpholine-4-carbonyl)-piperidine-2-carboxylic acid [5-(2-methoxy-1,1-dimethyl-ethyl)-isoxazol-3-yl]-amide]	162	
CCn1nc(NC(=O)[C@@H]2CCCCN2C(=O)CN2CCC(F)(F)C2)nc1-c1ccccc1 [(S)-1-[2-(3,3-Difluoro-pyrrolidin-1-yl)-acetyl]-piperidine-2-carboxylic acid (1-ethyl-5-phenyl-1H-1,2,4-triazol-3-yl)-amide]	262	
O=C(Nc1cc(C(F)(F)F)ccn1)[C@@H]1CCCCN1CC1CCOCC1 [(S)-1-(Tetrahydro-pyran-4-ylmethyl)-piperidine-2-carboxylic acid (4-trifluoromethyl-pyridin-2-yl)-amide]	290	
CC(C)(C)c1cc(NC(=O)[C@@H]2CCCCN2C(=O)CN2CCOCC2)no1 [(S)-1-(2-Morpholin-4-yl-acetyl)-piperidine-2-carboxylic acid (5-tert-butyl-isoxazol-3-yl)-amide]	188	
